Experimental data as given in ChEMBL document CHEMBL5465560, “Selectivity Literature for EUbOPEN Chemogenomic Library” (2024).

How the values were obtained:
[1] = target: Tyrosine-protein kinase CSK (Homo sapiens) (UniProt P41240); experiment: Selectivity interaction (KinomeScan (DiscoverX)) EUB0000229b CSK; details: at 10 µM
[2] = target: Cyclin-dependent kinase 5 (Homo sapiens, UniProt Q00535); experiment: Selectivity interaction (KinomeScan (DiscoverX)) EUB0000595a CDK5; details: at 10 µM
[3] = target: Dual specificity mitogen-activated protein kinase kinase 2 (Homo sapiens) (UniProt P36507); experiment: Selectivity interaction (KinomeScan (DiscoverX)) EUB0000045b MAP2K2
Sequence of Dual specificity mitogen-activated protein kinase kinase 2 (Homo sapiens) (P36507 whole entry): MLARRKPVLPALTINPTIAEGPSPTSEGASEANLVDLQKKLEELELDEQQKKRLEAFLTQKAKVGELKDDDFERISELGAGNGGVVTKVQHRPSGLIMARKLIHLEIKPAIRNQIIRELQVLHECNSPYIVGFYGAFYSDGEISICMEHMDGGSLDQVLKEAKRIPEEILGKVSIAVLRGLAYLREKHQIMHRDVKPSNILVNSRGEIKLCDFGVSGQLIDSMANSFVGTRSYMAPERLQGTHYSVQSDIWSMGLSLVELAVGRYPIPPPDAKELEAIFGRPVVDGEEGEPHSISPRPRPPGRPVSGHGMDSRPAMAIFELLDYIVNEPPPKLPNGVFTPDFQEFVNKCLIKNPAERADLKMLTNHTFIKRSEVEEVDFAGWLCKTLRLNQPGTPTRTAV

[4] = target: Dual specificity tyrosine-phosphorylation-regulated kinase 1A (Homo sapiens, UniProt Q13627); experiment: Selectivity interaction (KinomeScan (DiscoverX)) EUB0001079a DYRK1A; details: at 1 µM
[5] = Selectivity interaction (RapidFire MS assay (using full-length mouse protein MGAT2)) EUB0001079a MGAT2
[6] = target: Casein kinase I isoform gamma-1 (Homo sapiens) (UniProt Q9HCP0); experiment: Selectivity interaction (Kinase panel (Z-LYTE Assay)) EUB0001632a CSNK1G1; details: at 10 µM
Sequence of Casein kinase I isoform gamma-1 (Homo sapiens) (Q9HCP0 whole entry, looked up, the tested form may be a part, canonical isoform): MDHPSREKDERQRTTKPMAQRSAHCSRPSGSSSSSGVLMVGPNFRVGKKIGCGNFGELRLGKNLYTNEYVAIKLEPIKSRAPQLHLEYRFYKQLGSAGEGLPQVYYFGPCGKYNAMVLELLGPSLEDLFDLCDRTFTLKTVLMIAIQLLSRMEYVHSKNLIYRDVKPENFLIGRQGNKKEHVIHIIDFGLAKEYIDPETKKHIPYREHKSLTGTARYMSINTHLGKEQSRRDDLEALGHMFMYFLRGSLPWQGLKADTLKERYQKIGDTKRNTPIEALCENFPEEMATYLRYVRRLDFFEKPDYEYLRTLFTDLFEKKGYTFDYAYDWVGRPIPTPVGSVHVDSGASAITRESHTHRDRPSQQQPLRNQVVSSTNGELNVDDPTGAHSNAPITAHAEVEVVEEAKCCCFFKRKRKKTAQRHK

[7] = target: T1, Bromodomain-containing protein 1 (Homo sapiens) (UniProt O95696); experiment: Selectivity interaction (PWWP, WD40, and Tudor domain panel (DSLS measurements, literature)) EUB0000270b BRD1
T1 sequence (whole entry): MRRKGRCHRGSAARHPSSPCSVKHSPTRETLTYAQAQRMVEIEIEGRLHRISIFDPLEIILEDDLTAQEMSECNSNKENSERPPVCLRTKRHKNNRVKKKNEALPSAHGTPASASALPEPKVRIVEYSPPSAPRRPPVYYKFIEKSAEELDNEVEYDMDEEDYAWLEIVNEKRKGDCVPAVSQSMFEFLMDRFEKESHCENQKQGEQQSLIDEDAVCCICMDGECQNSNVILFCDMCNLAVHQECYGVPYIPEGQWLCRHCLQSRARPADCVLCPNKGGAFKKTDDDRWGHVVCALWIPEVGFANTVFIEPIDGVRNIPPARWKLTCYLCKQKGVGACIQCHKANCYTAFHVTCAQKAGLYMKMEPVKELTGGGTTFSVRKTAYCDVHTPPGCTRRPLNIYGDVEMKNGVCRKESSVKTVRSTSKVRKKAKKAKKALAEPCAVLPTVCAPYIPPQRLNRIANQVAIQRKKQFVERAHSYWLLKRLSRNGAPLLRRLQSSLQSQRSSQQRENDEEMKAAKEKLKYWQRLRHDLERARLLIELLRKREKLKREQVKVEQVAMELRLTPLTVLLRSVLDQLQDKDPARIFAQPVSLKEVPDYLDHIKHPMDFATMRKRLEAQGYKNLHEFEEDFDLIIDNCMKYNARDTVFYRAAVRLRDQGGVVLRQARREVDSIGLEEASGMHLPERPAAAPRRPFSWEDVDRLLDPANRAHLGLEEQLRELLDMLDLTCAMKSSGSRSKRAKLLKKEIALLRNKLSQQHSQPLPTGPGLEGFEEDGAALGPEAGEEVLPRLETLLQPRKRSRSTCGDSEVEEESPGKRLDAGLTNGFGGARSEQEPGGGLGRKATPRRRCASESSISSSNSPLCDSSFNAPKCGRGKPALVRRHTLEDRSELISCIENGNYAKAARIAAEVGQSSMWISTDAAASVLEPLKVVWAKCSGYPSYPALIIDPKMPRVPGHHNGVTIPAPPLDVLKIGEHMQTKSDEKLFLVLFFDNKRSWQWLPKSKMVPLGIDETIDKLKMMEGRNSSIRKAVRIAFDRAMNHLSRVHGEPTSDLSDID

[8] = target: Nuclear body protein SP140-like protein (Homo sapiens) (UniProt Q9H930); experiment: Selectivity interaction (Bromodomain panel (DSF asssay)) EUB0000270b SP140L
Sequence of Nuclear body protein SP140-like protein (Homo sapiens) (Q9H930 whole entry): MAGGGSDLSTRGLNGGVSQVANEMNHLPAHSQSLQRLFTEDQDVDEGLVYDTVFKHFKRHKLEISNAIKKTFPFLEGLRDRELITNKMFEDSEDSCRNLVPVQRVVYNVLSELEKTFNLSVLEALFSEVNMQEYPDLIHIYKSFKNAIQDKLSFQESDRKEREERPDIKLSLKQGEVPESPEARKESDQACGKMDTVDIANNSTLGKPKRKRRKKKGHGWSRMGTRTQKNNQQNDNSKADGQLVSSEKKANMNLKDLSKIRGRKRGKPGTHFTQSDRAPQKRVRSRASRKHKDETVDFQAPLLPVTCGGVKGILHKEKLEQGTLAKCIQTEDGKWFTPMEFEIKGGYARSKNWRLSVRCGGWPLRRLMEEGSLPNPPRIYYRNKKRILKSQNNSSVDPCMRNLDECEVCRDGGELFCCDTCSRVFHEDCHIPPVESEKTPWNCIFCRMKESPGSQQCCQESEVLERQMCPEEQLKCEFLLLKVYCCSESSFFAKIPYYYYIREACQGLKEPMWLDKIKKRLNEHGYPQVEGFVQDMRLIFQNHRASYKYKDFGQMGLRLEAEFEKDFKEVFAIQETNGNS

[9] = target: Serine/threonine-protein kinase 24 (Homo sapiens) (UniProt Q9Y6E0); experiment: Selectivity interaction (Upstate Kinase Profiler service (Millipore)) EUB0000056c STK24; details: at 1 µM
Sequence of Serine/threonine-protein kinase 24 (Homo sapiens) (Q9Y6E0 whole entry, looked up): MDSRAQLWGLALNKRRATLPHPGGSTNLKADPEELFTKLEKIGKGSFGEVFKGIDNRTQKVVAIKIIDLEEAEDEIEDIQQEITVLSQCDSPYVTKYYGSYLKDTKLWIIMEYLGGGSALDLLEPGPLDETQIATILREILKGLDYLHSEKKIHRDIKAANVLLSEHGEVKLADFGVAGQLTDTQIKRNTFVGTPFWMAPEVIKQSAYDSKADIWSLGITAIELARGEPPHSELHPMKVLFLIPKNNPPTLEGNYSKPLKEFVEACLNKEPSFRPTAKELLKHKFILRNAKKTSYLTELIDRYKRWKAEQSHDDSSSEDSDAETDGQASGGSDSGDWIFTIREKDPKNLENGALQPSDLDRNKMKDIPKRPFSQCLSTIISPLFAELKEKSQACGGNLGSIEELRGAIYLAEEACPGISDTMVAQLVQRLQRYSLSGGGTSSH

[10] = target: Tyrosine-protein kinase Lyn (Homo sapiens, UniProt P07948)
[11] = target: Dual specificity mitogen-activated protein kinase kinase 1 (Homo sapiens, UniProt Q02750); experiment: Selectivity interaction (KinomeScan (DiscoverX)) EUB0001619a MAP2K1; details: at 1 µM
Sequence of Dual specificity mitogen-activated protein kinase kinase 1 (Q02750 whole entry): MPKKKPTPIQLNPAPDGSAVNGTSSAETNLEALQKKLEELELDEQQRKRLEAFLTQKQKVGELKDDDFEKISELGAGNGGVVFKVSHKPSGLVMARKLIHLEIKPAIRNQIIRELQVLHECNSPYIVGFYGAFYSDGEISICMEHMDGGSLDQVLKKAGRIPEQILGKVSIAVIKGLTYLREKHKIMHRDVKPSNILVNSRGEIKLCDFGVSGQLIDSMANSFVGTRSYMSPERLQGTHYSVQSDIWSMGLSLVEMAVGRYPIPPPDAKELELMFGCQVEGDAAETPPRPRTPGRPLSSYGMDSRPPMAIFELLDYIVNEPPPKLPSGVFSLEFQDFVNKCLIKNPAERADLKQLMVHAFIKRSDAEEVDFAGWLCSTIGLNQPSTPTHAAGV

[12] = target: Non-receptor tyrosine-protein kinase TYK2 (Homo sapiens, UniProt P29597); experiment: Selectivity interaction (KinomeScan (DiscoverX)) EUB0001619a TYK2; details: at 1 µM
Sequence of Non-receptor tyrosine-protein kinase TYK2 (P29597 whole entry): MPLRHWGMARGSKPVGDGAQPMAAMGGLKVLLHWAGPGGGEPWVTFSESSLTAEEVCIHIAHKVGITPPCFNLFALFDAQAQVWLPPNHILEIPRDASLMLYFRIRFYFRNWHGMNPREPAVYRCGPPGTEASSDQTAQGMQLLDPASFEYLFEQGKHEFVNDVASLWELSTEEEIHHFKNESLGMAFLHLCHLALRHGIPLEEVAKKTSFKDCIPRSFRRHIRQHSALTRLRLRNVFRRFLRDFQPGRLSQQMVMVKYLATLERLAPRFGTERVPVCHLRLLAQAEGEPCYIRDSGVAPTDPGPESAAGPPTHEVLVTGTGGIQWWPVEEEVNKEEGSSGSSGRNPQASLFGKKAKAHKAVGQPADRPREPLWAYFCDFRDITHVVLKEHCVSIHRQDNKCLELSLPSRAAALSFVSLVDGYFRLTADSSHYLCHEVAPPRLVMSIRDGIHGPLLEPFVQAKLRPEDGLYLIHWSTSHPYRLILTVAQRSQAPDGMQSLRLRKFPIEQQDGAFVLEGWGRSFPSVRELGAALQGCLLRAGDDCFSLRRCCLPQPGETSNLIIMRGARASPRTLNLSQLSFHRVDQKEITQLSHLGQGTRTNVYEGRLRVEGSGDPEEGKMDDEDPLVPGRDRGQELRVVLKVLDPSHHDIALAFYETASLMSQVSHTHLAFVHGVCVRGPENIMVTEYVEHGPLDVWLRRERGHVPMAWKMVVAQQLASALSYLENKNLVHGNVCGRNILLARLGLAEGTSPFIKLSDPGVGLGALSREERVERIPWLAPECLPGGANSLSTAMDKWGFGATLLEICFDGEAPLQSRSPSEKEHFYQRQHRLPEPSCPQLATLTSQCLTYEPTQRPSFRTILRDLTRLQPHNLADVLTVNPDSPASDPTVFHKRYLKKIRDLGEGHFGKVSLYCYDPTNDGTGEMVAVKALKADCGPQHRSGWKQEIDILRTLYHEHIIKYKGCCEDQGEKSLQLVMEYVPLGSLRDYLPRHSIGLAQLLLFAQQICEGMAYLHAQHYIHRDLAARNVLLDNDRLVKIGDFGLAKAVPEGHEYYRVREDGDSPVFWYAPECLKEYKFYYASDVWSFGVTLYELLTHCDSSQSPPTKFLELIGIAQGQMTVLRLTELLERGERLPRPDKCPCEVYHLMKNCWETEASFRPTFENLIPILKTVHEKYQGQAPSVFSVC

[13] = target: Tyrosine-protein kinase JAK1 (Homo sapiens, UniProt P23458); experiment: Selectivity interaction (KinomeScan (DiscoverX)) EUB0000607a JAK1; details: at 10 µM
[14] = target: BDNF/NT-3 growth factors receptor (Homo sapiens) (UniProt Q16620); experiment: Selectivity interaction (SelectScreen Kinase Profiling (Thermo Fisher Scientific)) EUB0001558a NTRK2; details: at 1 µM
[15] = target: T2, Dual specificity mitogen-activated protein kinase kinase 3 (Homo sapiens) (UniProt P46734); experiment: (§1) Selectivity interaction (ActivX KiNativ screen (kinase selectivity in THP-1 cell lysates)) EUB0000639a MAP2K3; assay type: subcellular; details: lysate, at 1 µM
T2 sequence (whole entry): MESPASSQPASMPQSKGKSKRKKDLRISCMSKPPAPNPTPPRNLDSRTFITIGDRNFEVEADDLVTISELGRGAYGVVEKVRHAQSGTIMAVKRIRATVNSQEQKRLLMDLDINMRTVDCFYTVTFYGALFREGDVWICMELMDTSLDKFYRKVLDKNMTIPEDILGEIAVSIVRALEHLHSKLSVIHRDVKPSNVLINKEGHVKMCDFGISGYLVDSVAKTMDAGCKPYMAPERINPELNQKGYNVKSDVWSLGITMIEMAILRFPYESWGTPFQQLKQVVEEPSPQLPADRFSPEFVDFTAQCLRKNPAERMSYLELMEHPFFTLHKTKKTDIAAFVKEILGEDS

[16] = target: T2, Dual specificity mitogen-activated protein kinase kinase 3 (Homo sapiens); experiment: as §1; assay type: subcellular; details: lysate, at 0.01 µM
[17] = target: Serine/threonine-protein kinase 25 (Homo sapiens) (UniProt O00506); experiment: Selectivity interaction (KinomeScan (DiscoverX)) EUB0000655a STK25; details: at 10 µM
[18] = target: Cyclin-dependent kinase-like 1 (Homo sapiens) (UniProt Q00532); experiment: Selectivity interaction (KinomeScan (DiscoverX)) EUB0000092b CDKL1; details: at 10 µM
Sequence of Cyclin-dependent kinase-like 1 (Homo sapiens) (Q00532 whole entry): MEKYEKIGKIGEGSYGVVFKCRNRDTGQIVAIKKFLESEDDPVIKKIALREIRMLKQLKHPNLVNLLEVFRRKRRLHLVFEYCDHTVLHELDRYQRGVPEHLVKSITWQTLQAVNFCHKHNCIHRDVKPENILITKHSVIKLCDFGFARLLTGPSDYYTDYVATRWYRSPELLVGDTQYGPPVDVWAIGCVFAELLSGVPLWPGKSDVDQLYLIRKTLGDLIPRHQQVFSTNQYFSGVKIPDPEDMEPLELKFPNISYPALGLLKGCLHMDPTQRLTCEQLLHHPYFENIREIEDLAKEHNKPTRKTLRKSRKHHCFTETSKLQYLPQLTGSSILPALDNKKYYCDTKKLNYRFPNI

[19] = target: Mitogen-activated protein kinase 11 (Homo sapiens) (UniProt Q15759); experiment: Selectivity interaction (KinomeScan (DiscoverX)) EUB0000092b MAPK11; details: at 10 µM
Sequence of Mitogen-activated protein kinase 11 (Homo sapiens) (Q15759 whole entry): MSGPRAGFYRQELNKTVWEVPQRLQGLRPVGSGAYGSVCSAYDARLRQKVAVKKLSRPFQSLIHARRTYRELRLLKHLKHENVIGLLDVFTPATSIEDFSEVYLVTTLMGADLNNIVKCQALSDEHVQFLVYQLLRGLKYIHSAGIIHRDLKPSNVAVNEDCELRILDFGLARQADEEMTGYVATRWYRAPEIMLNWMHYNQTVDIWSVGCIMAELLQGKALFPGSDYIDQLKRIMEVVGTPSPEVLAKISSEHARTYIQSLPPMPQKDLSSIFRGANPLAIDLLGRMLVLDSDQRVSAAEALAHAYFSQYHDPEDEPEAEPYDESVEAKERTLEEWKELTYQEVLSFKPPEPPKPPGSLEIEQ

[20] = target: Serine/threonine-protein kinase MARK2 (Homo sapiens) (UniProt Q7KZI7); experiment: Selectivity interaction (Ambit KINOMEscan and KiNATiv profiling in Jurkat cells) EUB0000090b MARK2; assay type: cell-based; details: at 1 µM

Sequence of Tyrosine-protein kinase CSK (Homo sapiens) (P41240 2-450 limits assumed): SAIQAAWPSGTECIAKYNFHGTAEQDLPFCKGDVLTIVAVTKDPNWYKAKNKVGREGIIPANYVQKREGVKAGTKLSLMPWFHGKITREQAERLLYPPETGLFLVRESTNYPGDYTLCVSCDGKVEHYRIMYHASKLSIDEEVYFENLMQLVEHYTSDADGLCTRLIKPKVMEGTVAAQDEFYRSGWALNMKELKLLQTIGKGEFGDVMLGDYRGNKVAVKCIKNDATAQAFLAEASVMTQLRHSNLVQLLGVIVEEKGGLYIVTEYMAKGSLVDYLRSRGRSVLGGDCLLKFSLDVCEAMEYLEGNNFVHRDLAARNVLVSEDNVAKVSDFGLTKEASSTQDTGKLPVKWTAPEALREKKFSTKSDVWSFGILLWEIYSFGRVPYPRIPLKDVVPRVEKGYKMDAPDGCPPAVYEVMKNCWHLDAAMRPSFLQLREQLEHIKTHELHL
Sequence of Cyclin-dependent kinase 5 (Q00535 whole entry, looked up): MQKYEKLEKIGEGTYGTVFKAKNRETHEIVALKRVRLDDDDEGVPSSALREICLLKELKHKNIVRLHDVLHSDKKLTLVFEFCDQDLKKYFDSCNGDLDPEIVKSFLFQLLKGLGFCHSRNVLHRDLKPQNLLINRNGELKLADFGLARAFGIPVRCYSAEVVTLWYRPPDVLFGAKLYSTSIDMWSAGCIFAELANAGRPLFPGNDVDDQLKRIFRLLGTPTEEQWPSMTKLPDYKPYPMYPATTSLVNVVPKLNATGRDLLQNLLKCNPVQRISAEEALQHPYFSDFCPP

Compound: COc1cc(N(C)c2ccnc3ccc(C(F)(F)F)cc23)cc(OC)c1OC
- % binding [1]: 91%

Compound: COCC(=O)NC/C=C/c1ccc2ncnc(Nc3ccc(Oc4ccc(C)nc4)c(C)c3)c2c1 [CP-724714]
- % of control [2]: 100%

Compound: C=CC(=O)Nc1cc(-n2c(=O)ccc3cnc4ccc(-c5ccc(NS(C)(=O)=O)cc5)cc4c32)ccc1C
- % of control ([3]; at 1 µM): 96%
- % of control ([3]; at 10 µM): 66%

Compound: Nc1cnc(N2CCc3cc(S(=O)(=O)Nc4c(F)cc(Cl)cc4F)cc(N4CCCC4=O)c32)nc1 [TP-020n]
- % of control [4]: 80%
- IC50 [5]: 530 nM

Compound: Cn1cc(-n2cnc3c(NCc4nc5cc(Cl)c(Cl)cc5[nH]4)nc(N4CCOCC4)nc32)cn1
- % of control [6]: 12.7%

Compound: Cc1cc(CN)cc(C)c1-c1ncn(C)c1-c1cncn1C
- dTagg [7]: -2.2 K
- dTM [8]: -2.98 K

Compound: Cc1ccc(-c2ccc3c(ccc4sc5c(c43)NC[C@@H](C)NC5=O)n2)cn1
- % of inhibition [9]: 33%

Compound: CCc1cccc(CC)c1NC(=O)c1nn(C)c2c1CCc1cnc(Nc3ccc(C(=O)NC4CCN(C)CC4)cc3OC(F)(F)F)nc1-2
- IC50 [10]: > 10000 nM

Compound: N#Cc1cccc(-c2c[nH]c3ncnc(N4CCOCC4)c23)c1
- % of control [11]: 13%
- % of control [12]: 75%

Compound: CNC(=O)Nc1ccc(-c2nc(N3CC4CCC(C3)O4)c3cnn(C4CCC5(CC4)OCCO5)c3n2)cc1
- % of control [13]: 82%

Compound: CC(C)(O)[C@H](F)CN1Cc2cc(NC(=O)c3cnn4cccnc34)c(N3CCOCC3)cc2C1=O
- % of inhibition [14]: 86%

Compound: CC[C@@H]1[C@H](F)C(=O)N[C@@H]1COc1nccc2cc(C(N)=O)c(OC)cc12 [ZIMLOVISERTIB]
- % of inhibition [15]: -152%
- % of inhibition [16]: 9%

Compound: CN(C)CCOc1ccc(-c2nc(-c3ccncc3)c(-c3ccc4c(c3)CC/C4=N\O)[nH]2)cc1
- % of control [17]: 100%

Compound: CCC(=O)N1CCN(c2ccc(-n3c(=O)ccc4cnc5ccc(-c6cnc7ccccc7c6)cc5c43)cc2C(F)(F)F)CC1
- % of control [18]: 100%
- % of control [19]: 53%

Compound: CN(C)C/C=C/C(=O)Nc1ccc(C(=O)N2CCCC(Nc3ncc(Cl)c(-c4c[nH]c5ccccc45)n3)C2)cc1 (stereo unspecified)
- % of control [20]: 78%
